Measurements as given in patent US20260231994A1, “TASTE-ENHANCING COMPOSITION, METHOD FOR PRODUCING SAME, FOOD PRODUCT, AND METHOD FOR ENHANCING TASTE OF FOOD PRODUCT” (HOUSE FOODS GROUP INC., priority 2023, published 2026).

Tests used:
Type in all cases: in vivo
[1] = Experiment 6 sensory evaluation of cyclic dipeptides, “middle fullness (enhanced thickness)”
Procedure: (§1) An aqueous solution in which the concentration of each of the cyclic dipeptides shown in the table described below is set to be the same as its concentration in the heat-treated coriander prepared in 1.1. described above, as estimated from the ratio of the peak area of the cyclic dipeptides to the peak area of the internal standard (47 μg/g of L-lysine-^13C6 monohydrochloride) (hereinafter referred to as “heat-treated coriander equivalent aqueous solution”) was prepared. An aqueous solution in which the concentration of each of the cyclic dipeptides is set to be the same as its concentration in the heat-treated paprika of Example 203 prepared in 2.1 described above (hereinafter referred to as “heat-treated paprika equivalent aqueous solution”) was also prepared. Cyclic dipeptides prepared by the applicant were used in this experiment. As a cyclic dipeptide comprising Leu/Ile, a mixture comprising equal parts of cyclic dipeptide comprising Leu and cyclic dipeptide comprising Ile was used.
(§2) Common and reduced-sodium curry rouxes were prepared according to the procedures described in (1) and (2) of 1.3. described above.
(§3) Two dispersions of 44 g of the aforesaid reduced-sodium curry roux dispersed in 300 g of hot water were prepared. To one of them was added the heat-treated coriander equivalent solution or heat-treated paprika equivalent aqueous solution of the individual cyclic dipeptides shown in the table described below so as to be in the final concentration of 0.5% (w/w) or 1.0% (w/w), respectively.
(§4) Forty-four grams of the aforesaid common curry roux was dispersed in 300 g of hot water.
(§5) The dispersion of reduced-sodium curry roux dispersed in hot water and the dispersion of common curry roux dispersed in hot water were used as comparative controls, and the strength of the flavor was evaluated by three evaluators on the basis of the following evaluation criteria from the viewpoint of “top sharp saltiness”, “middle fullness (enhanced thickness) and “boosting of last flavor (aftertaste).”
(§6) The average of the evaluated scores was defined as “F” when it was 1.0 or lower, “C” when it was 1.1 or higher and 1.9 or lower, “B” when it was 2.0 or higher and 2.5 or lower, “A” when it was 2.6 or higher and 2.9 or lower, and “AA” when it was 3.0 or higher.
(§7) In the table described below, “ID” refers to the compound ID described above. The items of “coriander 0.5%” and “coriander 1.0%” refer to the addition of the aforesaid heat-treated coriander equivalent aqueous solution of cyclic dipeptide so that the final concentrations may be 0.5% (w/w) and 1.0% (w/w), respectively. The items of “paprika 0.5%” and “paprika 1.0%” refer to the addition of the aforesaid heat-treated paprika equivalent aqueous solution of cyclic dipeptide so that the final concentration may be 0.5% (w/w) and 1.0% (w/w), respectively.

[2] = Experiment 6 sensory evaluation of cyclic dipeptides, “boosting of last flavor (aftertaste)”
Procedure: as §1, §2, §3, §4, §5, §6, §7

[3] = Experiment 6 sensory evaluation of cyclic dipeptides, “top sharp saltiness”
Procedure: as §1, §2, §3, §4, §5, §6, §7

[4] = Additive amount coriander 0.5%, reduced-sodium curry roux
[5] = heat-treated coriander equivalent aqueous solution of cyclic dipeptide, final 1.0% (w/w) in reduced-sodium curry roux dispersion
[6] = heat-treated coriander equivalent aqueous solution of cyclic dipeptide, final 1.0% (w/w) in reduced-sodium curry roux dispersion, 3 evaluators
[7] = Additive amount coriander 0.5% (heat-treated coriander equivalent aqueous solution, final 0.5% (w/w)), reduced-sodium curry roux
[8] = Additive amount paprika 0.5%, reduced-sodium curry roux
[9] = heat-treated paprika equivalent aqueous solution of cyclic dipeptide, final 1.0% (w/w) in reduced-sodium curry roux dispersion
[10] = heat-treated paprika equivalent aqueous solution of cyclic dipeptide, final 1.0% (w/w) in reduced-sodium curry roux dispersion, 3 evaluators
[11] = Additive amount paprika 0.5% (heat-treated paprika equivalent aqueous solution, final 0.5% (w/w)), reduced-sodium curry roux

| Substance | Middle fullness Average [1, 4] [points] | Middle fullness Evaluation [1, 4] | Middle fullness Evaluation [1, 5] | Middle fullness Average [1, 6] [points] | Bosting of last flavor Average [2, 4] [points] | Bosting of last flavor Evaluation [2, 4] | Bosting of last flavor Evaluation [2, 5] | Bosting of last flavor Average [2, 6] [points] | Top sharp saltiness Average [3, 7] [points] | Top sharp saltiness Evaluation [3, 4] | Top sharp saltiness Evaluation [3, 5] | Top sharp saltiness Average [3, 6] [points] | Middle fullness Average [1, 8] [points] | Middle fullness Evaluation [1, 8] | Middle fullness Evaluation [1, 9] | Middle fullness Average [1, 10] [points] | Bosting of last flavor Average [2, 8] [points] | Bosting of last flavor Evaluation [2, 8] | Bosting of last flavor Evaluation [2, 9] | Bosting of last flavor Average [2, 10] [points] | also measured |
| --- | --- | --- | --- | --- | --- | --- | --- | --- | --- | --- | --- | --- | --- | --- | --- | --- | --- | --- | --- | --- | --- |
| cyclic (Ala-Tyr) [Coriander ID 26] | 2.3 | B (“B” when it was 2.0 or higher and 2.5 or lower) | B (“B” when it was 2.0 or higher and 2.5 or lower) | 2.2 | 2.2 | B (“B” when it was 2.0 or higher and 2.5 or lower) | B (“B” when it was 2.0 or higher and 2.5 or lower) | 2.3 | 2.2 | B (“B” when it was 2.0 or higher and 2.5 or lower) | C (“C” when it was 1.1 or higher and 1.9 or lower) | 1.3 |  |  |  |  |  |  |  |  |  |
| cyclic (Val-Phe) [Coriander ID 38] |  |  |  |  |  |  |  |  |  |  |  |  | 3.2 | AA (“AA” when it was 3.0 or higher) | A (“A” when it was 2.6 or higher and 2.9 or lower) | 2.8 | 3.3 | AA (“AA” when it was 3.0 or higher) | AA (“AA” when it was 3.0 or higher) | 3.2 | Top sharp saltiness Average [3, 11]: 2.8 points; Top sharp saltiness Evaluation [3, 8]: A (“A” when it was 2.6 or higher and 2.9 or lower); Top sharp saltiness Evaluation [3, 9]: A (“A” when it was 2.6 or higher and 2.9 or lower); Top sharp saltiness Average [3, 10]: 2.8 points |
| cyclic (Tyr-His) [Coriander ID 50] | 2.5 | B (“B” when it was 2.0 or higher and 2.5 or lower) | AA (“AA” when it was 3.0 or higher) | 3.3 | 2.8 | A (“A” when it was 2.6 or higher and 2.9 or lower) | AA (“AA” when it was 3.0 or higher) | 3.0 | 2.3 | B (“B” when it was 2.0 or higher and 2.5 or lower) | AA (“AA” when it was 3.0 or higher) | 3.3 |  |  |  |  |  |  |  |  |  |
| cyclic (Glu-Asp) [Coriander ID 12] |  |  |  |  |  |  |  |  |  |  |  |  | 2.7 | A (“A” when it was 2.6 or higher and 2.9 or lower) | B (“B” when it was 2.0 or higher and 2.5 or lower) | 2.0 | 2.3 | B (“B” when it was 2.0 or higher and 2.5 or lower) | B (“B” when it was 2.0 or higher and 2.5 or lower) | 2.0 | Top sharp saltiness Average [3, 11]: 1.8 points; Top sharp saltiness Evaluation [3, 8]: C (“C” when it was 1.1 or higher and 1.9 or lower); Top sharp saltiness Evaluation [3, 9]: C (“C” when it was 1.1 or higher and 1.9 or lower); Top sharp saltiness Average [3, 10]: 1.5 points |
| cyclic (Pro-Leu/Ile) [Coriander ID 39] | 1.8 | C (“C” when it was 1.1 or higher and 1.9 or lower) | C (“C” when it was 1.1 or higher and 1.9 or lower) | 1.8 | 2.2 | B (“B” when it was 2.0 or higher and 2.5 or lower) | C (“C” when it was 1.1 or higher and 1.9 or lower) | 1.7 | 1.5 | C (“C” when it was 1.1 or higher and 1.9 or lower) | C (“C” when it was 1.1 or higher and 1.9 or lower) | 1.8 |  |  |  |  |  |  |  |  |  |
| cyclic (Pro-Glu) [Coriander ID 48] | 1.7 | C (“C” when it was 1.1 or higher and 1.9 or lower) | B (“B” when it was 2.0 or higher and 2.5 or lower) | 2.3 | 1.8 | C (“C” when it was 1.1 or higher and 1.9 or lower) | B (“B” when it was 2.0 or higher and 2.5 or lower) | 2.3 | 1.7 | C (“C” when it was 1.1 or higher and 1.9 or lower) | B (“B” when it was 2.0 or higher and 2.5 or lower) | 2.0 |  |  |  |  |  |  |  |  |  |
| cyclic (Gly-Phe) [Coriander ID 28] |  |  |  |  |  |  |  |  |  |  |  |  | 3.2 | AA (“AA” when it was 3.0 or higher) | B (“B” when it was 2.0 or higher and 2.5 or lower) | 2.5 | 3.2 | AA (“AA” when it was 3.0 or higher) | B (“B” when it was 2.0 or higher and 2.5 or lower) | 2.5 | Top sharp saltiness Average [3, 11]: 2.7 points; Top sharp saltiness Evaluation [3, 8]: A (“A” when it was 2.6 or higher and 2.9 or lower); Top sharp saltiness Evaluation [3, 9]: B (“B” when it was 2.0 or higher and 2.5 or lower); Top sharp saltiness Average [3, 10]: 2.3 points |
| cyclic (Pro-Tyr) [Coriander ID 31] | 2.5 | B (“B” when it was 2.0 or higher and 2.5 or lower) | B (“B” when it was 2.0 or higher and 2.5 or lower) | 2.0 | 2.5 | B (“B” when it was 2.0 or higher and 2.5 or lower) | B (“B” when it was 2.0 or higher and 2.5 or lower) | 2.0 | 2.5 | B (“B” when it was 2.0 or higher and 2.5 or lower) | B (“B” when it was 2.0 or higher and 2.5 or lower) | 2.0 |  |  |  |  |  |  |  |  |  |
| cyclic (Glu-Phe) [Coriander ID 46] | 2.8 | A (“A” when it was 2.6 or higher and 2.9 or lower) | A (“A” when it was 2.6 or higher and 2.9 or lower) | 2.7 | 2.8 | A (“A” when it was 2.6 or higher and 2.9 or lower) | B (“B” when it was 2.0 or higher and 2.5 or lower) | 2.5 | 3.0 | AA (“AA” when it was 3.0 or higher) | B (“B” when it was 2.0 or higher and 2.5 or lower) | 2.5 |  |  |  |  |  |  |  |  |  |
